Drawing on publication PMC4440651, “Thymoquinone Inhibits Escherichia coli ATP Synthase and Cell Growth” (PLoS ONE, 2015), this text covers IC50 for one molecule.

Usually IC50 stands for the concentration that gives 50% inhibition.

The target in this assay is T1, E. coli F1Fo ATP synthase (F1-ATPase) (Escherichia coli, UniProt P0ABA6+P0ABB0+P0ABB4).
T1 construct: gene atpD; with F1 alpha (atpA), gamma (atpG), delta and epsilon subunits; Fo (ab2c10–14) in the membrane preparation
Nature of the assay: ATPase activity assay (liberated Pi) on purified F1 and F1Fo membranes; reversal by dilution or centrifuge column. The format is biochemical.

In the case of `CC1=CC(=O)C(C(C)C)=CC1=O` [TQ, thymoquinone], the IC50 was about 37 µM.
